# Laboratory results as given in patent US11932654B2, “Nimbolide analogs as anti-cancer agents and preparation thereof” (priority 2018, dated 2024).
# How the values were obtained:
# [1] = tested on: p27; test: Western blotting analysis on Panc-1 cell line, p27; format: cell-based; conditions: panc-1 cells, various concentrations, 24 h, Western blot
# Experimental: Western blotting analysis of IM-1372-Kn-13 on Panc-1 cell line: The cells were lysed in RIPA buffer (50 mM-tris (PH-7.4), 150 Min-Nacl, 1%-NP-40, 0.1%-SDS, 0.5%-Sodium-deoxycholate, 1 mM EDTA, 5 mM NaF, 5 mM Na—O-vandate, 1 mM PMSF, Protease inhibitor cocktail. The lysates were cleared by centrifugation at […] and concentration of protein was estimated by bradford assay. For Western blot analysis, equivalent amount of protein was resolved in SDS-PAGE and then transferred to polyvinylidene difluoride ([…]) membrane. Ti avoid non specific binding of antibodies, the membranes were blocked using 3% BSA in TBS with 0.5% Tween (TBST) for 1 h at room temperature. The membranes were then incubated in primary antibody overnight at 4° C. After removing excess primary antibody bound to membranes, blots were incubated with secondary anti body. Then the signal emitted was captured using chemiluminescence substrate.
# [2] = tested on: caspase-3; test: Caspase assay activity, caspase-3, Panc-1 cells; format: cell-based; conditions: fluorimetric assay, increasing concentrations
# Experimental: Caspase assay activity: Caspase-3, caspase-8 and caspase-9 protease activities were determined using a commercial fluorescence assay kit according to the manufacturer's instructions, Briefly, pancreatic cancer cells were treated with different concentrations of IM-1372-Kn-13 for 24 h were re-suspended in 50 μL of chilled cell lysis buffer; cells were then incubated on ice for 10 min and centrifuged for 1 min in a micro-centrifuge (10,000 g). Then supernatants were transferred (cytosolic extract) to a fresh tube and protein concentration was assayed. Next, diluted 100 μg protein was added to 50 μL cell lysis buffer for each assay. Subsequently, 50 μL of 2× reaction buffer and 5 μL of the 4 mM Ac-DEVD AMC (caspase-3)/Ac-VETD-AMC (caspase-8)/[…] were added and incubated at 37° C. for 2 h (samples read at […] in a microtiter plate reader).
# [3] = tested on: DU-145 prostate cancer cell line; test: In vitro anticancer activity, SRB assay, DU-145; format: cell-based; conditions: Homo sapiens, 48 h, NA = Not Active
# Experimental: (§1) Cell culture: Human lung adenocarcinoma cell line (A549 cell line), pancreatic cancer cell line (Panc-1, Pan-02), prostate cancer cell line (DU145, PC3), Brest cancer cell line (MCF-7) was grown in DIEM (Dulbecco's modifications of eagle's medium with L-glutamine & 4.5 g/L glucose) supplemented with fetal bovine serum in a humidified atmosphere of a 5% CO2 at 37° C.
# (§2) In vitro anticancer activity: Cells were harvested from exponential phase cultures by trypsinization, counted and plated in 96-well plate. Optimal seeding densities for different cell lines in each plate were 5000 cells per well. After 24 h cells were treated with \ the newly synthesized compound at a dose range of 0.1-100 μm final concentration. Thereafter, cells were allowed to grow for 48 h before determination of cell survival by the SRB assay. Then the cells were fixed with 10% cold trichloroacetic acid for 1 h at 4° C. After two washes with deionized water, fixed cells were stained with 50 μL of SRB solution (1% in acetic acid) for 30 min and subsequently washed twice with 1% acetic acid to remove unbound stain. The plates were left to dry at room temperature and bound stain was solubilized with 100 μL of 10 mM buffered Tris base for reading the […] at 540 nm.
# [4] = Biochemical analysis of serum of tumor xenograft mice; format: in vivo, nude mice; conditions: for Albumin / Alkaline phosphatase / Creatinine / Glucose / SGOT / SGPT / Total protein / Urea: xenograft mice, mean ± SE
# Experimental: Establishment of Pancreatic cancer xenograft model: To establish tumor in mice, Pan-02 cells (7×10^6) were suspended in 1:1 RPMI medium mixed with matrigel and subcutaneously implanted on right flank of the each mice. The injection sites were examined daily for the appearance of tumors. On 10th day these animals were randomized and divided into 3 groups (6 mice in each group). Group I served as control group received 20% ethanol three times in a week. Test group animals in Group II and III received intratumoral injection of IM-1372-Kn-13 at 10 mg and 25 mg/kg body weight respectively three times in a week. All groups received 5 repeated doses in 12 days. Mice were weighed and tumor volumes were measured 3 times a week by Vernier caliper. Tumor volume in individual mice was calculated by the following formula. 0.5×L (W)^2, Where L is length, W is width of the tumor. The control group animals were euthanized when tumor volume is reached heavier to animal. One-week after completion of treatment period, the animals were sacrificed, and tumors were excised, fixed, and embedded in paraffin. At the end of treatment, blood samples were collected to perform clinical biochemistry.
# Biochemical analysis: In acute toxicity experiment, blood samples were collected from all the animals 1 week after the last dose and mice were sacrificed by cervical decapitation. The obtained serum was analyzed in clinical chemistry for the assessment of liver function tests (LFT), activity of serum alkaline phosphatase (ALP), alanine aminotransferase (ALT), aspartate aminotransferase (AST), kidney function tests (RFT) (serum urea and creatinine). The same tests were performed for serum samples collected from three groups of tumor xenograft mice used for determining in vivo activity of test compound against pancreatic cancer. The measurement of these biochemical parameters was done in Clinical Biochemical analyzer (Tulip coralab 3000™).
# [5] = tested on: MCF-7 breast cancer cell line; test: In vitro anticancer activity, SRB assay, MCF-7; format: cell-based; conditions: Homo sapiens, MCF7, 48 h, NA = Not Active
# Experimental: as §1, §2
smiles,measurement,setting,value
COC(=O)C[C@H]1[C@]2(C)C3=C(C)[C@H](C4=CC5OC4C(C(=O)OC)=C5C(=O)OC)C[C@@H]3O[C@@H]2[C@@H]2OC(=O)[C@]3(C)C=CC(=O)[C@@]1(C)C23 (some centres unmarked) [A4],expression of p27 protein,[1],reduced
same,activity of caspase-3,[2],increased significantly in a dose-dependent manner
same,IC50,[3],0.58 µM
same,serum total protein and albumin levels,[4]; group II and III compared to control group I,significantly increased
same,"serum ALT, AST and ALP enzyme activities",[4]; treated xenograft groups vs elevated control group I,returned to normal
same,elevated levels of serum urea and creatinine,"[4]; tumor-bearing mice, compared to group I",significantly fetched down
same,Albumin,[4]; 10 mg/kg,3.16 ± 0.2 g/dL
same,Alkaline phosphatase,[4]; 10 mg/kg,685.26 ± 28.8 U/L
same,Creatinine,[4]; 10 mg/kg,1.56 ± 0.4 mg/dL
same,Glucose,[4]; 10 mg/kg,77.60 ± 3.0 mg/dL
same,SGOT,[4]; 10 mg/kg,56.12 ± 5.8 U/L
same,SGPT,[4]; 10 mg/kg,47.05 ± 5.8 U/L
same,Total protein,[4]; 10 mg/kg,6.24 ± 0.5 g/dL
same,Urea,[4]; 10 mg/kg,46.81 ± 5.8 mg/dL
same,Albumin,[4]; 25 mg/kg,3.61 ± 0.1 g/dL
same,Alkaline phosphatase,[4]; 25 mg/kg,545.63 ± 24.9 U/L
same,Creatinine,[4]; 25 mg/kg,0.80 ± 0.1 mg/dL
same,Glucose,[4]; 25 mg/kg,108.42 ± 4.7 mg/dL
same,SGOT,[4]; 25 mg/kg,32.20 ± 2.4 U/L
same,SGPT,[4]; 25 mg/kg,24.49 ± 4.0 U/L
same,Total protein,[4]; 25 mg/kg,8.05 ± 0.3 g/dL
same,Urea,[4]; 25 mg/kg,41.23 ± 3.7 mg/dL
same,IC50,[5],12.5 µM
